Experiments:
[1] = system: gastrointestinal mitochondrial function; conditions: murine model; pathways of electron transport chain, oxidative phosphorylation, protein targeting to the mitochondrion; cited from earlier work
mouse model for ASD = experiment: Sociality (aggregons) in mouse model for ASD, pups of antibiotic-treated mothers; assay type: in vivo
Description: ASD is a neurobehavioral disorder in which affected individuals have persistent deficits in social communication and interaction (symptom of ASD). To address the impact of 2′-FL administration on social communication and interaction, a mouse model for ASD was designed and experiments conducted to study ASD-associated neurobehavioral disorders such as interpersonal sociality. A depiction of the system used for scoring contact behavior was adapted from known method, e.g., that described by Harshaw, C. et al. (2014). “Sex Differences in Thermogenesis Structure Behavior and Contact within Huddles of Infant Mice.” Plos One, 9(1), 1-15 and Sokoloff G, Blumberg M S. Competition and cooperation among huddling infant rats. Dev Psychobiol. 2001 September; 39(2):65-75. doi: 10.1002/dev.1030, Erratum in: Dev Psychobiol 2001 November; 39(3):229.
The question to be addressed was whether providing 2′-FL rescues the normal sociality of mouse pups whose social interaction was perturbed. Perturbation of behavior was achieved by antibiotic treatment of their mothers using a method previously developed and validated. Sociality is measured by objective measurement of “aggregons” which means the (a) huddling of dams and pups or (b) pups only in groups.
The mouse experiment involved 22 mother-pup litters including a control group (n=7 litters with 28 pups), an antibiotic treated group (7 litters with 28 pups), and a 2′-FL treated group (8 litters with 32 pups).
Mothers were treated with an antibiotic cocktail, starting from gestational day 12; delivery was on day 20. Antibiotic use was continued for mothers postpartum. Treatment of 2′-FL was given to mothers and pups through their water intake. Sociality was measured at night, as mice are nocturnal animals, using the mean number of aggregons (social groupings). Aggregons could consist of individual mice only if they were not huddled with other mice, or they could be a group defined as either one or more pups with the dam, or two or more pups without the dam. The outcome of the experiment was measured on postpartum day 7. […]

bifidobacteria = conditions: alone or in combination with other HMOs; cited from earlier work
[2] = system: IL-10 and inflammatory cytokine expression; conditions: 2′-FL alone or as part of an HMO mixture, pre-clinical studies; cited from earlier work

2′-fucosyllactose [2′-FL]
gastrointestinal mitochondrial function [1]: increase gastrointestinal mitochondrial function | pup-only aggregons, pattern by experimental group (mouse model for ASD; night 7, p<0.05, 2′-FL group follows the pattern of the controls): This pattern in the aggregons by experimental group was also observed | marginal mean of aggregons including dams (mouse model for ASD; night 7 postpartum, 2′-FL via water intake to mothers and pups, antibiotic-treated group 41, controls 26, lower number = more sociality): 25 aggregons | sociality of antibiotic-treated mice (dams and their offspring) (mouse model for ASD; postpartum day 7): normal sociality was rescued | growth and relative abundance of bifidobacteria (bifidobacteria): increases the growth and relative abundance of bifidobacteria | IL-10 [2]: increase IL-10 | inflammatory cytokine expression [2]: decrease inflammatory cytokine expression

— patent US20230255990A1, “USE OF 2'-FL FOR TREATMENT OF SYMPTOMS ASSOCIATED WITH AUTISM SPECTRUM DISORDER” (Glycosyn LLC, priority 2020, published 2023)
